According to ChEMBL document CHEMBL3763135, “Synthesis and evaluation of thiophene-based guanylhydrazones (iminoguanidines) efficient against panel of voriconazole-resistant fungal isolates” (Bioorg Med Chem, 2016):
Activity calls are given as the source filed them. No cut-off for these calls is given here.

Assays:
[1] = Selectivity index, ratio of IC50 for human MRC5 cell to MIC for Candida albicans CA5
[2] = Selectivity index, ratio of IC50 for human MRC5 cell to MIC for Candida albicans ATCC 10231
Candida albicans [3] = experiment: Antifungal activity against Candida albicans CA5 assessed as fungal growth at sub-MIC measured over 12 hrs by time-kill dependence-based spectrophotometric analysis relative to DMSO control; type: functional
Candida albicans [4] = experiment: Antibiofilm activity against Candida albicans ATCC 10231 assessed as inhibition of hyphae formation at MIC after 24 hrs by concanavalin A-FITC-staining based fluorescence microscopic analysis; type: functional, organism-based
[5] = Hemolytic effect in sheep RBC assessed as release of hemoglobin at MIC after 1 hr; type: ADME, cell-based, Ovis aries, Erythrocyte; conditions: sheep red blood cells, read-out: Activity
[6] = Hemolytic effect in sheep RBC assessed as release of hemoglobin at cytotoxic IC50 after 1 hr; type: cell-based, Ovis aries, Erythrocyte; conditions: sheep red blood cells, read-out: Activity
[7] = Induction of membrane damage in PC/PS/E liposome assessed as calcein release at MIC after 30 mins by fluorescence-based liposome leakage assay; type: functional
Pichia kudriavzevii [8] = experiment: Antibiofilm activity against Candida krusei ATCC 34135 assessed as inhibition of hyphae formation at MIC after 24 hrs by concanavalin A-FITC-staining based fluorescence microscopic analysis; type: functional, organism-based
Candida parapsilosis = experiment: Antibiofilm activity against Candida parapsilosis C27 assessed as inhibition of hyphae formation at MIC after 24 hrs by concanavalin A-FITC-staining based fluorescence microscopic analysis; type: functional, organism-based
[9] = Toxicity against zebrafish embryo assessed as dead embryos at 5 ug/ml measured at 96 hrs post fertilization by inverted microscopic analysis; type: organism-based, Danio rerio; conditions: read-out: Activity
[10] = Toxicity against zebrafish embryo assessed as dead embryos at 2.5 ug/ml measured at 96 hrs post fertilization by inverted microscopic analysis; type: organism-based, Danio rerio; conditions: read-out: Activity
Danio rerio [11] = species: Danio rerio; experiment: Toxicity against zebrafish embryo assessed as teratogenic embryos at 25 ug/ml measured at 96 hrs post fertilization by inverted microscopic analysis; type: organism-based; conditions: in vivo
Danio rerio [12] = species: Danio rerio; experiment: Toxicity against zebrafish embryo assessed as teratogenic embryos at 2.5 ug/ml measured at 96 hrs post fertilization by inverted microscopic analysis; type: organism-based; conditions: in vivo
Danio rerio [13] = species: Danio rerio; experiment: Toxicity against zebrafish embryo assessed as effect on tail tip at 5 ug/ml measured at 96 hrs post fertilization by inverted microscopic analysis; type: organism-based; conditions: in vivo
Danio rerio [14] = species: Danio rerio; experiment: Toxicity against zebrafish embryo assessed as growth retardation at 10 ug/ml measured at 96 hrs post fertilization by inverted microscopic analysis; type: organism-based; conditions: in vivo
Candida albicans [15] = experiment: Induction of apoptosis in Candida albicans CA5 assessed as nuclear condensation at MIC measured after 2 hrs by concavaline-FITC/PI/DAPI-staining based fluorescence microscopic analysis relative to DMSO control; type: functional, organism-based
Pichia kudriavzevii [16] = experiment: Antibiofilm activity against 48 hrs pre-formed Candida krusei ATCC 34135 assessed as inhibition of hyphae formation at MIC after 24 hrs by concanavalin A-FITC-staining based fluorescence microscopic analysis; type: functional, organism-based
Danio rerio [17] = species: Danio rerio; experiment: Toxicity against zebrafish embryo assessed as normal embryos at 50 ug/ml measured at 96 hrs post fertilization by inverted microscopic analysis; type: organism-based; conditions: in vivo
Danio rerio [18] = species: Danio rerio; experiment: Toxicity against zebrafish embryo assessed as normal embryos at 5 ug/ml measured at 96 hrs post fertilization by inverted microscopic analysis; type: organism-based; conditions: in vivo
Danio rerio [19] = species: Danio rerio; experiment: Toxicity against zebrafish embryo assessed as effect on eyes at 10 ug/ml measured at 96 hrs post fertilization by inverted microscopic analysis; type: organism-based; conditions: in vivo
Danio rerio [20] = species: Danio rerio; experiment: Toxicity against zebrafish embryo assessed as effect on eyes at 5 ug/ml measured at 96 hrs post fertilization by inverted microscopic analysis; type: organism-based; conditions: in vivo
Danio rerio [21] = species: Danio rerio; experiment: Toxicity against zebrafish embryo assessed as effect on otoliths at 5 ug/ml measured at 96 hrs post fertilization by inverted microscopic analysis; type: organism-based; conditions: in vivo
Danio rerio [22] = species: Danio rerio; experiment: Toxicity against zebrafish embryo assessed as effect on otoliths at 2.5 ug/ml measured at 96 hrs post fertilization by inverted microscopic analysis; type: organism-based; conditions: in vivo
Danio rerio [23] = experiment: Toxicity against zebrafish embryo assessed as pericardial edema at 5 ug/ml measured at 96 hrs post fertilization by inverted microscopic analysis; type: organism-based; conditions: in vivo
Danio rerio [24] = experiment: Toxicity against zebrafish embryo assessed as yolk edema at 2.5 ug/ml measured at 96 hrs post fertilization by inverted microscopic analysis; type: organism-based; conditions: in vivo
Danio rerio [25] = species: Danio rerio; experiment: Toxicity against zebrafish embryo assessed as effect on blood circulation at 5 ug/ml measured at 96 hrs post fertilization by inverted microscopic analysis; type: organism-based; conditions: in vivo
Danio rerio [26] = species: Danio rerio; experiment: Toxicity against zebrafish embryo assessed as head malformation at 5 ug/ml measured at 96 hrs post fertilization by inverted microscopic analysis; type: organism-based; conditions: in vivo
Danio rerio [27] = species: Danio rerio; experiment: Toxicity against zebrafish embryo assessed as head malformation at 2.5 ug/ml measured at 96 hrs post fertilization by inverted microscopic analysis; type: organism-based; conditions: in vivo
Danio rerio [28] = species: Danio rerio; experiment: Toxicity against zebrafish embryo assessed as skeletal deformities at 10 ug/ml measured at 96 hrs post fertilization by inverted microscopic analysis; type: organism-based; conditions: in vivo
Danio rerio [29] = species: Danio rerio; experiment: Toxicity against zebrafish embryo assessed as skeletal deformities at 2.5 ug/ml measured at 96 hrs post fertilization by inverted microscopic analysis; type: organism-based; conditions: in vivo
Candida albicans [30] = experiment: Fungistatic activity against Candida albicans CA5 at sub-MIC measured after 12 hrs by time-kill dependence-based spectrophotometric analysis; type: functional, organism-based
Danio rerio [31] = species: Danio rerio; experiment: Toxicity against zebrafish embryo assessed as effect on tail tip at 25 ug/ml measured at 96 hrs post fertilization by inverted microscopic analysis; type: organism-based; conditions: in vivo
Danio rerio [32] = species: Danio rerio; experiment: Toxicity against zebrafish embryo assessed as growth retardation at 25 ug/ml measured at 96 hrs post fertilization by inverted microscopic analysis; type: organism-based; conditions: in vivo
Danio rerio [33] = species: Danio rerio; experiment: Toxicity against zebrafish embryo assessed as effect on notochord at 50 ug/ml measured at 96 hrs post fertilization by inverted microscopic analysis; type: organism-based; conditions: in vivo
Danio rerio [34] = species: Danio rerio; experiment: Toxicity against zebrafish embryo assessed as effect on notochord at 25 ug/ml measured at 96 hrs post fertilization by inverted microscopic analysis; type: organism-based; conditions: in vivo
Danio rerio [35] = species: Danio rerio; experiment: Toxicity against zebrafish embryo assessed as effect on eyes at 25 ug/ml measured at 96 hrs post fertilization by inverted microscopic analysis; type: organism-based; conditions: in vivo
Danio rerio [36] = species: Danio rerio; experiment: Toxicity against zebrafish embryo assessed as effect on otoliths at 25 ug/ml measured at 96 hrs post fertilization by inverted microscopic analysis; type: organism-based; conditions: in vivo
Danio rerio [37] = experiment: Toxicity against zebrafish embryo assessed as pericardial edema at 25 ug/ml measured at 96 hrs post fertilization by inverted microscopic analysis; type: organism-based; conditions: in vivo
Danio rerio [38] = experiment: Toxicity against zebrafish embryo assessed as yolk edema at 25 ug/ml measured at 96 hrs post fertilization by inverted microscopic analysis; type: organism-based; conditions: in vivo
Danio rerio [39] = species: Danio rerio; experiment: Toxicity against zebrafish embryo assessed as effect on heart beat at 25 ug/ml measured at 96 hrs post fertilization by inverted microscopic analysis; type: organism-based; conditions: in vivo
Danio rerio [40] = species: Danio rerio; experiment: Toxicity against zebrafish embryo assessed as effect on blood circulation at 25 ug/ml measured at 96 hrs post fertilization by inverted microscopic analysis; type: organism-based; conditions: in vivo
Danio rerio [41] = species: Danio rerio; experiment: Toxicity against zebrafish embryo assessed as unhatched embryos at 50 ug/ml measured at 96 hrs post fertilization by inverted microscopic analysis; type: organism-based; conditions: in vivo
Danio rerio [42] = species: Danio rerio; experiment: Toxicity against zebrafish embryo assessed as unhatched embryos at 25 ug/ml measured at 96 hrs post fertilization by inverted microscopic analysis; type: organism-based; conditions: in vivo
Danio rerio [43] = species: Danio rerio; experiment: Toxicity against zebrafish embryo assessed as head malformation at 25 ug/ml measured at 96 hrs post fertilization by inverted microscopic analysis; type: organism-based; conditions: in vivo
Danio rerio [44] = species: Danio rerio; experiment: Toxicity against zebrafish embryo assessed as skeletal deformities at 25 ug/ml measured at 96 hrs post fertilization by inverted microscopic analysis; type: organism-based; conditions: in vivo

For `Cc1ccc(-c2ccc(/C=N/NC(=N)N)s2)cc1.Cl`, the “Selectivity Index” value [1] was 5, the “Selectivity Index” value [2] was 2.7 and the Activity (Candida albicans [3]) was 50%. The Activity (Candida albicans [4]) was “Active”, the hemolysis at 1 h [5] was no more than 10% and the hemolysis at 1 h [6] was no more than 10%. For the same molecule, the Activity [7] was 7%, the Activity (Pichia kudriavzevii [8]) was “Active” and the Activity (Candida parapsilosis) was “Active”. The mortality at 96 h, 5 ug/ml [9] was 20%, the mortality at 96 h, 2.5 ug/ml [10] was 10% and the Activity (Danio rerio [11]) was 0%. It also gave an Activity (Danio rerio [12]) of 6.67%, an Activity (Danio rerio [13]) of 0% and an Activity (Danio rerio [14]) of 100%. The Activity (Candida albicans [15]) was “inactive”, the Activity (Pichia kudriavzevii [16]) was “Active” and the Activity (Danio rerio [17]) was 0%. It also gave an Activity (Danio rerio [18]) of 0%, an Activity (Danio rerio [19]) of 100% and an Activity (Danio rerio [20]) of 0%. The Activity (Danio rerio [21]) was 62.5%, the Activity (Danio rerio [22]) was 0% and the Activity (Danio rerio [23]) was 100%. It also gave an Activity (Danio rerio [24]) of 0%, an Activity (Danio rerio [25]) of 0% and an Activity (Danio rerio [26]) of 100%. It also gave an Activity (Danio rerio [27]) of 0%, an Activity (Danio rerio [28]) of 6.67% and an Activity (Danio rerio [29]) of 0%.

With `Cl.Cl.N=C(N)N/N=C/c1ccc(-c2ccc(/C=N/NC(=N)N)s2)cc1` the “Selectivity Index” value [1] was 20, the Activity (Candida albicans [30]) was “Active” and the Activity (Candida albicans [4]) was “Active”. The Activity [7] was 7%, the Activity (Pichia kudriavzevii [8]) was “Active” and the Activity (Candida parapsilosis) was “Active”. It also gave a mortality at 96 h, 5 ug/ml [9] of 0%, a mortality at 96 h, 2.5 ug/ml [10] of 0% and an Activity (Danio rerio [11]) of 0%. For the same molecule, the Activity (Danio rerio [12]) was 0%, the Activity (Danio rerio [31]) was 0% and the Activity (Danio rerio [13]) was 0%. For the same molecule, the Activity (Danio rerio [32]) was 0%, the Activity (Danio rerio [14]) was 0% and the Activity (Candida albicans [15]) was “inactive”. The Activity (Pichia kudriavzevii [16]) was “inactive”, the Activity (Danio rerio [17]) was 96.67% and the Activity (Danio rerio [18]) was 100%. For the same molecule, the Activity (Danio rerio [33]) was 0%, the Activity (Danio rerio [34]) was 0% and the Activity (Danio rerio [35]) was 0%. For the same molecule, the Activity (Danio rerio [19]) was 0%, the Activity (Danio rerio [20]) was 0% and the Activity (Danio rerio [36]) was 0%. It also gave an Activity (Danio rerio [21]) of 0%, an Activity (Danio rerio [22]) of 0% and an Activity (Danio rerio [37]) of 0%. The Activity (Danio rerio [23]) was 0%, the Activity (Danio rerio [38]) was 0% and the Activity (Danio rerio [24]) was 0%. The Activity (Danio rerio [39]) was 0%, the Activity (Danio rerio [40]) was 0% and the Activity (Danio rerio [25]) was 0%. It also gave an Activity (Danio rerio [41]) of 0%, an Activity (Danio rerio [42]) of 0% and an Activity (Danio rerio [43]) of 0%. For the same molecule, the Activity (Danio rerio [26]) was 0%, the Activity (Danio rerio [27]) was 0% and the Activity (Danio rerio [44]) was 0%. It also gave an Activity (Danio rerio [28]) of 0% and an Activity (Danio rerio [29]) of 0%.
